# Experimental data published in patent US10479854B2, “Conjugate for treating malaria” (priority 2014, dated 2019).
# pIC50: −log10 of the molar value.
# Tested on: chloroquine-resistant Plasmodium falciparum strain (D10R)
# Assay: In vitro anti-malaria assay (Malstat, lactate dehydrogenase)
# Type: cell-based
# Details: read-out: IC50(chloroquine)
# Protocol: In separate experiments, tyrocidine/tryptocidines conjugated to polymers 11 and 12, respectively, were administered at varying concentrations to blood samples containing cells infected with a chloroquine-resistant Plasmodium falciparum strain (D10 resistant mutant denoted D10R, IC50(chloroquine)>100 nM). For comparison purposes, the unconjugated/unmodified natural tyrocidine/tryptocidine mixture was also administered to blood infected with the same chloroquin-resistant malaria strain. FIGS. 16 and 17 show the antimalaria activity and the haemolytic activity of the tyrocidine/tryptocidine-PVP conjugates in comparison with the natural cyclodecapetide mixture. […]
# P. falciparum (D10 strain) was cultured and dose-response assays were performed as previously described.^9 Briefly, parasites were cultured under an atmosphere of 3% CO2, 4% O2 and 93% N2 in RPMI-1640 media, supplemented with 25 mM HEPES, 50 mM glucose, 0.65 mM hypoxanthine, 0.048 mg/mL gentamicin, 0.2% (w/v) NaHCO3, 0.5% (w/v) Albumax II and 2% fresh human O^+ erythrocytes obtained from anonymous donors from the Western Cape Blood Blank. […] A 10 μL aliquot from each well was diluted to 100 μL with phosphate buffered saline and analysed at 405 nm, on a plate reader, to determine the quantity of released haemoglobin and haemolytic activity of the conjugates. […]
structure (smiles),measurement,value
CCN(CC)CCCC(C)Nc1ccnc2cc(Cl)ccc12 (stereo not shown) [chloroquine],pIC50,< 7.00
